The text below walks through data of paper PMC9921851, “Synthesis and Preclinical Evaluation of Three Novel ^68Ga-Labeled Bispecific PSMA/FAP-Targeting Tracers for Prostate Cancer Imaging” (Molecules, 2023).

As a reminder, the IC50 is the concentration that inhibits the measured activity by half.

One data set deals with T1, PSMA (Homo sapiens, UniProt Q04609).
T1 construct: endogenous in cells; host or cells: LNCaP cells (ATCC via Cedarlane)
In words: In vitro PSMA competition binding assay ([^18F]DCFPyL displacement on LNCaP cells). The conditions noted are these: radioligand [^18F]DCFPyL, n = 3. How it is done:
The binding affinities of Ga-AV01017, Ga-AV01030, Ga-AV01038, Ga-HTK03041, and Ga-FAPI-04 to PSMA were measured by a cell-based binding assay using PSMA-expressing LNCaP prostate cancer cells. The nonradioactive Ga-complexed standards, except Ga-FAPI-04, inhibited the binding of [^18F]DCFPyL to LNCaP cells in a dose-dependent manner (Figure 3A).
The PSMA binding assays were conducted following previously published procedures using LNCaP cells and [^18F]DCFPyL as the radioligand [34, 42, 43]. Data analyses of IC50 were performed using the nonlinear regression algorithm of GraphPad Prism 7 (San Diego, CA, USA) software.

In the next data set the target is T2, recombinant human FAP (Homo sapiens, UniProt Q12884).
T2 construct: purchased Biolegend
T2 sequence (Q12884 1-760): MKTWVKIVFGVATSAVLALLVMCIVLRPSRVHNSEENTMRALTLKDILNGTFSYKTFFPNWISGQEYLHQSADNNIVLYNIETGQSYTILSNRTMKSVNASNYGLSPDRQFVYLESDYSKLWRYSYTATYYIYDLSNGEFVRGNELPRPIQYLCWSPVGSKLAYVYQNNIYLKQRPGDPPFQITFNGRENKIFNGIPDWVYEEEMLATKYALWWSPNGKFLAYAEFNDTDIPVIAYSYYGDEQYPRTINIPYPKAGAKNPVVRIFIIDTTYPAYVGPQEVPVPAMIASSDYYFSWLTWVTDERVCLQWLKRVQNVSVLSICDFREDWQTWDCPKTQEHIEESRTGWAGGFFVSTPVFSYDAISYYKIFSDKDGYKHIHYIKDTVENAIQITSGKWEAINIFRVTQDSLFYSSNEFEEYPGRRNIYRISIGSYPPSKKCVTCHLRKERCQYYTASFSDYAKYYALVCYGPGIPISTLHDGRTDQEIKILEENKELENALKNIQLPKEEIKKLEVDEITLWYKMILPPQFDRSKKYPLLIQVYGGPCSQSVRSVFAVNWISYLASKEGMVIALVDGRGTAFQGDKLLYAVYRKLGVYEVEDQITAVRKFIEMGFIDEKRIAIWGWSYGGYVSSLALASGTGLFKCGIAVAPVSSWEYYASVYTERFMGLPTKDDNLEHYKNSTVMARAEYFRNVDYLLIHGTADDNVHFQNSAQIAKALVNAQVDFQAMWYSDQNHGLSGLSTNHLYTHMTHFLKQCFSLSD
As to the kind of experiment: In vitro FAP fluorescence enzyme-inhibition assay (Suc-Gly-Pro-AMC substrate). To be noted: n = 3. The data set is classed as biochemical. As for the experimental part: The binding affinities of Ga-AV01017, Ga-AV01030, Ga-AV01038, Ga-HTK03041, and Ga-FAPI-04 to human FAP were measured by an enzyme-inhibition assay using Suc-Gly-Pro-AMC as the FAP substrate. The human FAP enzymatic activity on the substrate was inhibited by Ga-complexed standards in a dose-dependent manner (Figure 3B).
The half maximal inhibitory concentration (IC50) values of the tested compounds for FAP were measured by in vitro enzymatic assay. The recombinant human FAP (Biolegend; 0.2 µg/mL, 50 µL) was added into a costar 96-well plate. PBS and varied concentrations (0.2 pM to 2 µM) of tested nonradioactive Ga-complexed standards were added to each well (in duplicate) containing the recombinant human FAP. After being incubated for 30 min at 37 °C, 50 µL of Suc-Gly-Pro-AMC (2 µM, Bachem) was added to each well. The fluorescent signals were acquired at 15, 30, 45, and 60 min using a FlexStation 3 Multi-Mode Microplate Reader with excitation at 380 nm and emission at 460 nm. The IC50(FAP) was calculated using a “nonlinear fit model” built-in model in GraphPad Prism 7.02 software

The test system of data set [1] is PSMA-expressing LNCaP tumor xenografts. As to the kind of experiment: Ex vivo biodistribution in LNCaP tumor-bearing mice. The conditions noted are these: 1 h post injection, range over LNCaP and HEK293T:hFAP tumor-bearing mice.

T1 sequence (Q04609 whole entry): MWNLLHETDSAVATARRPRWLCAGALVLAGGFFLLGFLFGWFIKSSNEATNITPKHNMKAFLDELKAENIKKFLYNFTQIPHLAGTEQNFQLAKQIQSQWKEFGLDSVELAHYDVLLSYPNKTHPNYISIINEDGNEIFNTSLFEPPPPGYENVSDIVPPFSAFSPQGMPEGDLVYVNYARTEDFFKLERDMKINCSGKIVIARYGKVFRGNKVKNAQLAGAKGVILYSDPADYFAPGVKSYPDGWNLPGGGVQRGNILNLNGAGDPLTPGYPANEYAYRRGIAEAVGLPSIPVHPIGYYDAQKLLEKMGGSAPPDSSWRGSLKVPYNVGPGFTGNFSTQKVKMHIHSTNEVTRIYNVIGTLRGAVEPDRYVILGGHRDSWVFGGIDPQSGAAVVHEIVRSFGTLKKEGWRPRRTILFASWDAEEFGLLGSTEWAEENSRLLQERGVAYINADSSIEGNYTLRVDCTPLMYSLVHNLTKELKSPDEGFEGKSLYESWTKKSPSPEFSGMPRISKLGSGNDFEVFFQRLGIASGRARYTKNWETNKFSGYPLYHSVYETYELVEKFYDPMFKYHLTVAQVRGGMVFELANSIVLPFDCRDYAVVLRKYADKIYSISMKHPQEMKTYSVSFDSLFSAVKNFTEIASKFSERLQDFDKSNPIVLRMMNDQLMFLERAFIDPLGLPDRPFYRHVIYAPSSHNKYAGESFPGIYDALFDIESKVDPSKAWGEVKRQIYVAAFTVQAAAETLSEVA

Regarding `N#C[C@@H]1CC(F)(F)CN1C(=O)CNC(=O)c1ccnc2ccc(OCc3cn(CC(=O)N[C@@H](CCCCNC(=O)CN4CCN(CC(=O)[O-])CCN(CC(=O)[O-])CCN(CC(=O)[O-])CC4)C(=O)NCC(=O)NC[C@H]4CC[C@H](C(=O)N[C@@H](Cc5c6ccccc6cc6ccccc56)C(=O)NCCCC[C@H](NC(=O)N[C@@H](CCC(=O)O)C(=O)O)C(=O)O)CC4)nn3)cc12.[Ga+3]` [Ga-AV01038], the IC50 at PSMA was 0.0294 ± 0.0252 µM; at recombinant human FAP, 0.00231 ± 0.00013 µM. In addition, the “Blood uptake values (range over both tumor models)” value in data set [1] was 7.07–7.45 %ID/g.
